These results are taken from publication PMC6757234, “Extractions of Medical Cannabis Cultivars and the Role of Decarboxylation in Optimal Receptor Responses” (Cannabis and Cannabinoid Research, 2019).

Where two headings read alike, the source gives them in different places.

One assay deals with T1, CB2 receptor (Homo sapiens, UniProt P34972).
T1 construct: host or cells: CHO-K1-CB2
Put plainly: cAMP assay (HitHunter) in CHO-K1-CB2 cells, agonist and antagonist modes. To be noted: for CB2 Mode of action: CHO-K1-CB2 cells, forskolin 20 μM, NA = no activity; for CB2 Efficacy (%): percentage of the response to CP-55940; for CB2 Efficacy (%) / EC50: agonist or antagonist mode; for EC50: antagonist mode against CP-55940 at EC90. The class given is cell-based. For orientation: cAMP levels reflect the balance of adenylyl cyclase and phosphodiesterase activity.

The next assay deals with T2, CB1 receptor (Homo sapiens, UniProt P21554).
T2 construct: host or cells: CHO-K1-CB1
In words: cell-based. It counts as cell-based.

Another assay has as its target human CB2 receptors. Further details: method as in PMID 28861508. To be noted: reference standard contaminated with 2% Δ9-THC; read-out: approximate Ki at human CB2; cited from earlier work.
The target of the next assay is human CB1. Further details: method as in PMID 28861508. To be noted: reference standard contaminated with 2% Δ9-THC; read-out: approximate Ki at human CB1; cited from earlier work.
Where [1] appears, read: percentage of the response to CP-55940, agonist or antagonist mode.

T2 sequence (P21554 whole entry): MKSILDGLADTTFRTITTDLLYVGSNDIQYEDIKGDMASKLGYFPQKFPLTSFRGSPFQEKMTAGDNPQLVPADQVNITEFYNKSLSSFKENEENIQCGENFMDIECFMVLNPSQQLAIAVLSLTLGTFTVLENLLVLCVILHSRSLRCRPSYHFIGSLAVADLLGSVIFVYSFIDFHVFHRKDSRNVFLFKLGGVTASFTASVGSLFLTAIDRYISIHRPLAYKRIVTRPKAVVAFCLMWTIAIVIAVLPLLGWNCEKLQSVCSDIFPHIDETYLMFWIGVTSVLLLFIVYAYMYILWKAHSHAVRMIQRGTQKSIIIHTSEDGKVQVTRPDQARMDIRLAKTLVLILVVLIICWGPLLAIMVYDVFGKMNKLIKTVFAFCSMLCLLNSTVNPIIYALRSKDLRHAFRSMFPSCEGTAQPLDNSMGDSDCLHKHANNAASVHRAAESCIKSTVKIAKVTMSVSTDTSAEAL
T1 sequence (P34972 whole entry): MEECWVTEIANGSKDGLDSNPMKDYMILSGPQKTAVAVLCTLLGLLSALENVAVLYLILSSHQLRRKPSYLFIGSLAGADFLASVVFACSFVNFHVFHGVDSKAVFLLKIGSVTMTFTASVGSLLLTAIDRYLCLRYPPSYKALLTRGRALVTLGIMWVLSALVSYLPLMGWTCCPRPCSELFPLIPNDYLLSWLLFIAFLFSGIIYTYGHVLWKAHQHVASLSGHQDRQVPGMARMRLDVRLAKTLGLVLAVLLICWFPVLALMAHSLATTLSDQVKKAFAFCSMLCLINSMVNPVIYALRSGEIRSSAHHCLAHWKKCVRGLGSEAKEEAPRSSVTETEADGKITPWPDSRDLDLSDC

On to `C=C(C)[C@@H]1CCC(C)=C[C@H]1c1c(O)cc(CCCCC)cc1O` [CBD, cannabidiol, reference compound], for which, on CB2 receptor, the “CB2 Mode of action” value was “Antagonist” and the “CB2 Efficacy (%)” value stood at 100%. The “CB1 Mode of action” value on CB1 receptor (CHO-K1-CB1 cells, forskolin 20 μM, NA = no activity) is reported as “Antagonist”. Besides, the “CB1 Efficacy (%)” value on CB1 receptor (setting [1]) worked out at 40%.
Turning to `CCCCCc1cc(O)c2c(c1)OC(C)(C)[C@@H]1CCC(C)=C[C@@H]21` [Δ^9-THC, Δ^9-tetrahydrocannabinol], on CB2 receptor, the “CB2 Mode of action” value is recorded as “Weak partial agonist” and the “CB2 Efficacy (%)” value is on record as 20%.
Turning to `CCCCCCC(C)(C)c1ccc([C@@H]2C[C@H](O)CC[C@H]2CCCO)c(O)c1` [CP-55940, reference compound], on CB2 receptor, the “CB2 Mode of action” value is “Agonist” and the “CB2 Efficacy (%)” value was 100%. For the same compound, on CB1 receptor, the “CB1 Efficacy (%)” value was 100% and the “CB1 Mode of action” value is listed as “Agonist”.
A word on the EC50: it is the concentration giving half of the maximal effect. A word on the Ki: it is the dissociation constant of the complex between target and ligand, obtained from inhibition or displacement. `CCCCCc1cc2c(c(O)c1C(=O)O)[C@@H]1C=C(C)CC[C@H]1C(C)(C)O2` [Δ^9-THCA, Δ^9-tetrahydrocannabinolic acid]: the EC50 on CB2 receptor (CB2 EC50 (μM)) came to 30 ± 15 µM. Moreover, on CB2 receptor, the “CB2 Mode of action” value is “Weak agonist” and the “CB2 Efficacy (%)” value was 100%. Moreover, on CB1 receptor, the “CB1 Efficacy (%)” value amounted to 100%, the “CB1 Mode of action” value is on record as “Weak agonist” and a half-maximal response (EC50) required 1.8 ± 0.7 µM. Also, the Ki at human CB2 receptors is approximately 12.5 µM. The Ki at human CB1 was approximately 3.1 µM.
As to `C=C(C)[C@@H]1CCC(C)=C[C@H]1c1c(O)cc(CCCCC)c(C(=O)O)c1O` [CBDA, cannabidiolic acid], the EC50 at CB2 receptor (read-out: CB2 EC50) was more than 100 µM; at CB1 receptor it was more than 10 µM. Moreover, the “fold weaker than CBD at CB2 receptor as an antagonist” value on CB2 receptor (comparison of EC50 values) is given as “more than 10 fold”. The “CB2 Efficacy (%)” value on CB2 receptor is −23%. For the same compound, the “CB1 Efficacy (%)” value on CB1 receptor (setting [1]) stood at 0%.
With `COc1ccc(C(=O)c2c(C)n(CCN3CCOCC3)c3cc(I)ccc23)cc1` [AM-630], on CB2 receptor, the “CB2 Mode of action” value is “Antagonist” and the “CB2 Efficacy (%)” value is recorded as 100%. The EC50 on CB2 receptor (read-out: CB2 EC50) stood at 0.146 ± 0.084 µM.
